Counter-ions that a name gives are not always drawn.
Experiments:
[1] = test system: recreational stimulant users; assay: Intravenous abuse potential, VAS pharmacodynamic scores (Example 2); type: in vivo, human
Source text: “Drug liking” score, used herein, is the score used to assess the degree that a human participant likes a drug effect at the time the question is being asked (that is, at the moment). It is scored using a 0 to 100 point bipolar visual analogue scale (VAS) anchored in the center with a neutral anchor of “neither like nor dislike” (score of 50), on the left with “strong disliking” (score of 0) and on the right with “strong liking” (score of 100).
“Euphoria” or “Feeling High” score, used herein, is the term to describe the score used to assess the degree that a human participant is high at the time the question is being asked (that is, at the moment). It is scored using a 0 to 100 point unipolar visual analogue scale (VAS) anchored on the left with “Not at All” (score of 0) and on the right with “Extremely” (score of 100).
“Take Drug Again” score, used herein, is the term to describe the score used to assess the degree that a human participant wants to take the drug again, if given the opportunity, based on his/her opinion now, i.e., at the time the question is being asked. It is scored using a 0 to 100 point unipolar visual analogue scale (VAS) anchored on the left with “Definitely Would Not” (score of 0) and on the right with “Definitely Would” (score of 100).
“Overall Drug Liking” score, used herein, is the term to describe the score used to assess the human subject's global perception of drug liking (i.e., the subjective effects over the whole course of the drug experience including any carryover effects). Subjects respond to the statement “Overall, my liking for this drug is.” The question is scored using a 0-100 point bipolar VAS anchored on the left with “Strong Disliking” (score of 0); “Neither Like nor Dislike” (score of 50) in the middle, and anchored on the right with “Strong Liking” (score of 100). This scale has the advantage of the human subject being relatively less affected or unaffected by acute study drug effects (if any) by the time of the assessment.
“Good Effects” score, used herein, is the term to describe the score used to assess the degree that a human participant is feeling good drug effects at the time the question is being asked (that is, at the moment). Subjects respond to the statement “At this moment, I can feel good drug effects.” It is scored using a 0 to 100 point unipolar visual analogue scale (VAS) anchored on the left with “Not at All” (score of 0) and on the right with “Extremely” (score of 100).
Safety assessments were performed throughout the study.

[2] = test system: recreational stimulant users; assay: Treatment-emergent adverse events, intravenous study (Example 2); settings: SDX Cl 30 mg (N=31), d-MPH HCl 15 mg (N=30)
Experimental: A study was conducted in humans to assess the intravenous abuse potential of serdexmethylphenidate relative to unconjugated d-methylphenidate and placebo in recreational stimulant abusers. This was a Phase 1, randomized, double-blind study in which serdexmethylphenidate and d-methylphenidate were administered intravenously in recreational stimulant users with a history of non-oral abuse. In Part A of the study, subjects (Cohort 1) participated in a dose-escalation phase to determine the optimal dose of intravenous d-methylphenidate based on tolerability and abuse-related pharmacodynamic assessments. […] The doses of serdexmethylphenidate and d-methylphenidate are equivalent with respect to molar amount of d-methylphenidate. FDA-recommended abuse potential measures and blood samples were collected at different times after dosing. Safety assessments were performed throughout the study.

[3] = SDX Cl 30 mg, d-MPH HCl 15 mg, 12 hours
[4] = SDX Cl 30 mg, d-MPH HCl 15 mg, 12 hours, unipolar VAS
[5] = SDX Cl 30 mg, d-MPH HCl 15 mg, 24 hours
[6] = SDX Cl 30 mg, d-MPH HCl 15 mg, 24 hours, unipolar VAS
[7] = SDX Cl 30 mg, d-MPH HCl 15 mg, bipolar VAS
[8] = SDX Cl 30 mg, d-MPH HCl 15 mg, unipolar VAS
[9] = d-MPH HCl 15 mg vs SDX Cl 30 mg, bipolar VAS
[10] = d-MPH HCl 15 mg vs SDX Cl 30 mg, unipolar VAS
[11] = SDX Cl 30 mg vs placebo, bipolar VAS
[12] = SDX Cl 30 mg vs placebo, unipolar VAS

COC(=O)[C@H](c1ccccc1)[C@H]1CCCCN1 [d-methylphenidate hydrochloride, d-threo-methylphenidate hydrochloride]
Mean Overall Drug Liking [1, 3]: 68.0
Median Overall Drug Liking [1, 3]: 73.0
Mean Take Drug Again [1, 4]: 61.3
Median Take Drug Again [1, 4]: 69.5
Mean Overall Drug Liking [1, 5]: 67.3
Median Overall Drug Liking [1, 5]: 70.5
Mean Take Drug Again [1, 6]: 54.9
Median Take Drug Again [1, 6]: 58.5
Drug Liking Emax (median) [1, 7]: 84.5
Overall Drug Liking Emax (mean) [1, 7]: 72.4
Overall Drug Liking Emax (median) [1, 7]: 74.0
Feeling High Emax (mean) [1, 8]: 77.4
Feeling High Emax (median) [1, 8]: 79.0
Good Effects Emax (mean) [1, 8]: 82.1
Good Effects Emax (median) [1, 8]: 85.0
Take Drug Again Emax (mean) [1, 8]: 63.3
Take Drug Again Emax (median) [1, 8]: 72.5
Median difference Drug Liking Emax [1, 9]: 29.0
Median difference Overall Drug Liking, 12 hours [1, 9]: 16.0
Median difference Overall Drug Liking, 24 hours [1, 9]: 13.5
Median difference Overall Drug Liking, Emax [1, 9]: 18.0
Mean difference Take Drug Again, 12 hours [1, 10]: 43.3
Mean difference Take Drug Again, 24 hours [1, 10]: 39.2
Mean difference Take Drug Again, Emax [1, 10]: 43.1
Median difference Feeling High Emax [1, 10]: 67.0
Median difference Good Effects Emax [1, 10]: 73.0
TEAE Change in sustained attention, % of subjects [2]: (6.7) %
TEAE Change in sustained attention, n subjects [2]: 2
TEAE Dry mouth, % of subjects [2]: (20.0) %
TEAE Dry mouth, n subjects [2]: 6
TEAE Energy increased, % of subjects [2]: (3.3) %
TEAE Energy increased, n subjects [2]: 1
TEAE Euphoric mood, % of subjects [2]: (56.7) %
TEAE Euphoric mood, n subjects [2]: 17
TEAE Feeling abnormal, % of subjects [2]: (6.7) %
TEAE Feeling abnormal, n subjects [2]: 2
TEAE Feeling hot, % of subjects [2]: (20.0) %
TEAE Feeling hot, n subjects [2]: 6
TEAE Feeling jittery, % of subjects [2]: (6.7) %
TEAE Feeling jittery, n subjects [2]: 2
TEAE Feeling of relaxation, % of subjects [2]: (3.3) %
TEAE Feeling of relaxation, n subjects [2]: 1
TEAE Headache, % of subjects [2]: (3.3) %
TEAE Headache, n subjects [2]: 1
TEAE Heart rate increased, % of subjects [2]: (16.7) %
TEAE Heart rate increased, n subjects [2]: 5
TEAE Hyperhidrosis (sweaty hands), % of subjects [2]: (13.3) %
TEAE Hyperhidrosis (sweaty hands), n subjects [2]: 4
TEAE Hypervigilance, % of subjects [2]: (33.3) %
TEAE Hypervigilance, n subjects [2]: 10
TEAE Nausea, % of subjects [2]: (10.0) %
TEAE Nausea, n subjects [2]: 3
TEAE Palpitations, % of subjects [2]: (6.7) %
TEAE Palpitations, n subjects [2]: 2
TEAE Paraesthesia (tingling), % of subjects [2]: (6.7) %
TEAE Paraesthesia (tingling), n subjects [2]: 2
TEAE Sinus tachycardia, % of subjects [2]: (13.3) %
TEAE Sinus tachycardia, n subjects [2]: 4
TEAE Somnolence, % of subjects [2]: (13.3) %
TEAE Somnolence, n subjects [2]: 4
TEAE Tachycardia, % of subjects [2]: (13.3) %
TEAE Tachycardia, n subjects [2]: 4

COC(=O)[C@H](c1ccccc1)[C@H]1CCCCN1C(=O)OC[n+]1cccc(C(=O)N[C@@H](CO)C(=O)O)c1.[Cl-] [serdexmethylphenidate chloride]
Mean difference Overall Drug Liking, 12 hours [1, 11]: 2.8
Mean difference Overall Drug Liking, 24 hours [1, 11]: 1.2
Mean difference Overall Drug Liking, Emax [1, 11]: 1.4
Median difference Drug Liking Emax [1, 11]: 0.5
Mean difference Feeling High Emax [1, 12]: 3.4
Mean difference Good Effects Emax [1, 12]: 2.2
Mean difference Take Drug Again, 12 hours [1, 12]: 9.1
Mean difference Take Drug Again, 24 hours [1, 12]: 1.4
Mean difference Take Drug Again, Emax [1, 12]: 6.0
Mean Overall Drug Liking [1, 3]: 53.3
Median Overall Drug Liking [1, 3]: 50.0
Mean Take Drug Again [1, 4]: 17.5
Median Take Drug Again [1, 4]: 0.0
Mean Overall Drug Liking [1, 5]: 54.8
Median Overall Drug Liking [1, 5]: 50.0
Mean Take Drug Again [1, 6]: 15.7
Median Take Drug Again [1, 6]: 0.0
Drug Liking Emax (mean) [1, 7]: 56.6
Drug Liking Emax (median) [1, 7]: 50.5
Overall Drug Liking Emax (mean) [1, 7]: 55.2
Overall Drug Liking Emax (median) [1, 7]: 50.0
Feeling High Emax (mean) [1, 8]: 14.5
Feeling High Emax (median) [1, 8]: 0.0
Good Effects Emax (mean) [1, 8]: 15.5
Good Effects Emax (median) [1, 8]: 0.0
Take Drug Again Emax (mean) [1, 8]: 19.6
Take Drug Again Emax (median) [1, 8]: 0.0
TEAE Change in sustained attention, % of subjects [2]: (0.0) %
TEAE Change in sustained attention, n subjects [2]: 0
TEAE Dry mouth, % of subjects [2]: (0.0) %
TEAE Dry mouth, n subjects [2]: 0
TEAE Energy increased, % of subjects [2]: (6.5) %
TEAE Energy increased, n subjects [2]: 2
TEAE Euphoric mood, % of subjects [2]: (12.9) %
TEAE Euphoric mood, n subjects [2]: 4
TEAE Feeling abnormal, % of subjects [2]: (3.2) %
TEAE Feeling abnormal, n subjects [2]: 1
TEAE Feeling hot, % of subjects [2]: (6.5) %
TEAE Feeling hot, n subjects [2]: 2
TEAE Feeling jittery, % of subjects [2]: (0.0) %
TEAE Feeling jittery, n subjects [2]: 0
TEAE Feeling of relaxation, % of subjects [2]: (0.0) %
TEAE Feeling of relaxation, n subjects [2]: 0
TEAE Headache, % of subjects [2]: (3.2) %
TEAE Headache, n subjects [2]: 1
TEAE Heart rate increased, % of subjects [2]: (0.0) %
TEAE Heart rate increased, n subjects [2]: 0
TEAE Hyperhidrosis (sweaty hands), % of subjects [2]: (3.2) %
TEAE Hyperhidrosis (sweaty hands), n subjects [2]: 1
TEAE Hypervigilance, % of subjects [2]: (12.9) %
TEAE Hypervigilance, n subjects [2]: 4
TEAE Nausea, % of subjects [2]: (0.0) %
TEAE Nausea, n subjects [2]: 0
TEAE Palpitations, % of subjects [2]: (0.0) %
TEAE Palpitations, n subjects [2]: 0
TEAE Paraesthesia (tingling), % of subjects [2]: (0.0) %
TEAE Paraesthesia (tingling), n subjects [2]: 0
TEAE Sinus tachycardia, % of subjects [2]: (0.0) %
TEAE Sinus tachycardia, n subjects [2]: 0
TEAE Somnolence, % of subjects [2]: (3.2) %
TEAE Somnolence, n subjects [2]: 1
TEAE Tachycardia, % of subjects [2]: (0.0) %
TEAE Tachycardia, n subjects [2]: 0

Source: patent publication US20190381017A1, “Compositions Comprising Serdexmethylphenidate Conjugates And Methods Of Use Thereof” (KemPharm, Inc., priority 2018, published 2019)
